According to ChEMBL document CHEMBL5131472, “Synthesis and antiviral activity of formycin derivatives with anti-influenza virus activity” (Bioorg Med Chem, 2022):

Assays:
[1] = Cytotoxicity against dog MDCK cells assessed as reduction in cell viability incubated for 48 hrs by CellTiter96 Aqueous one solution assay; format: toxicity, cell-based, Canis lupus familiaris
[2] = tested on: Influenza A virus; assay: Antiviral activity against Influenza A virus A/WSN/33(H1N1) infected in dog MDCK cells assessed as reduction in viral titer in supernatants incubated for 24 hrs by plaque assay; format: functional, organism-based

| SMILES | CC50 at 48 h [1] | IC50 [2] |
| --- | --- | --- |
| CNc1ncnc2c([C@@H]3O[C@H](CO)[C@@H](O)[C@H]3O)n[nH]c12 | 1.5 µM | 0.015 µM |
| CSc1ncnc2c([C@@H]3O[C@H](CO)[C@@H](O)[C@H]3O)n[nH]c12 | 9.3 µM | 0.01 µM |
| OC[C@H]1O[C@@H](c2n[nH]c3c(N4CCOCC4)ncnc23)[C@H](O)[C@@H]1O | > 1000 µM |  |
| CSc1ncnc2c([C@@H]3O[C@H](CO)[C@@H](O)[C@@H]3O)n[nH]c12 | > 1000 µM | > 3 µM |
| CC(C)Sc1ncnc2c([C@@H]3O[C@H](CO)[C@@H](O)[C@H]3O)n[nH]c12 | 503 µM |  |
| CC(C)Nc1ncnc2c([C@@H]3O[C@H](CO)[C@@H](O)[C@H]3O)n[nH]c12 | > 1000 µM |  |
| OC[C@H]1O[C@@H](c2n[nH]c3c(N4CCCCC4)ncnc23)[C@H](O)[C@@H]1O | 289 µM |  |
| CCNc1ncnc2c([C@@H]3O[C@H](CO)[C@@H](O)[C@H]3O)n[nH]c12 | 5.7 µM | 0.313 µM |
| CN(C)c1ncnc2c([C@@H]3O[C@H](CO)[C@@H](O)[C@H]3O)n[nH]c12 | 70 µM | 2.84 µM |
| OC[C@H]1O[C@@H](c2n[nH]c3c(S)ncnc23)[C@H](O)[C@@H]1O | 403 µM | 0.571 µM |
| CSc1nc(Cl)nc2c([C@@H]3O[C@H](CO)[C@@H](O)[C@H]3O)n[nH]c12 | > 1000 µM | > 1 µM |
| COc1ncnc2c([C@@H]3O[C@H](CO)[C@@H](O)[C@H]3O)n[nH]c12 | 1.2 µM | 0.088 µM |
| CSc1ncnc2c([C@@H]3O[C@H](CO)[C@@H](O)[C@H]3O)nn(C)c12 | 205 µM | 0.344 µM |
| OC[C@H]1O[C@@H](c2n[nH]c3c(SC(F)(F)F)ncnc23)[C@H](O)[C@@H]1O | 3.6 µM | 0.397 µM |
| CSc1ncnc2c([C@@H]3O[C@H](CO)[C@@H](O)[C@]3(C)O)n[nH]c12 | > 1000 µM | 0.306 µM |
| NC(=O)CSc1ncnc2c([C@@H]3O[C@H](CO)[C@@H](O)[C@H]3O)n[nH]c12 | 307 µM |  |
| CCCCNc1ncnc2c([C@@H]3O[C@H](CO)[C@@H](O)[C@H]3O)n[nH]c12 | > 1000 µM | 0.68 µM |
| OC[C@H]1O[C@@H](c2n[nH]c3c([SeH])ncnc23)[C@H](O)[C@@H]1O | 5.6 µM | 0.035 µM |
| CSc1nc(SC)c2[nH]nc([C@@H]3O[C@H](CO)[C@@H](O)[C@H]3O)c2n1 | > 1000 µM | > 1 µM |
| CSc1ncnc2c([C@@H]3O[C@H](CO)[C@@H](O)[C@@]3(C)O)n[nH]c12 | > 1000 µM | 2.59 µM |
| OC[C@H]1O[C@@H](c2n[nH]c3c(-n4ccnn4)ncnc23)[C@H](O)[C@@H]1O | 287 µM | 0.343 µM |
| C[Se]c1ncnc2c([C@@H]3O[C@H](CO)[C@@H](O)[C@H]3O)n[nH]c12 | < 0.1 µM | 0.024 µM |
| C=CCSc1ncnc2c([C@@H]3O[C@H](CO)[C@@H](O)[C@H]3O)n[nH]c12 | 412 µM | 0.22 µM |

| SMILES | CC50 at 48 h [1] | IC50 [2] |
| --- | --- | --- |
| CSc1ncnc2c([C@@H]3O[C@H](CO)[C@H](O)[C@H]3O)n[nH]c12 | > 1000 µM |  |
| CSc1nc(O)nc2c([C@@H]3O[C@H](CO)[C@@H](O)[C@H]3O)n[nH]c12 | > 1000 µM | > 1 µM |
| OC[C@H]1O[C@@H](c2n[nH]c3c(-n4nccn4)ncnc23)[C@H](O)[C@@H]1O | < 0.1 µM | 0.103 µM |
| OC[C@H]1O[C@@H](c2nn3c4c(ncnc24)SCC3)[C@H](O)[C@@H]1O | 249 µM |  |
| OC[C@H]1O[C@@H](c2n[nH]c3c(N4CCCC4)ncnc23)[C@H](O)[C@@H]1O | 211 µM |  |
| CCCCSc1ncnc2c([C@@H]3O[C@H](CO)[C@@H](O)[C@H]3O)n[nH]c12 | 238 µM |  |
| OC[C@H]1O[C@@H](c2n[nH]c3c(-c4cnn[nH]4)ncnc23)[C@H](O)[C@@H]1O | > 1000 µM |  |
| CSc1ncnc2c([C@@H]3O[C@H](CO)C[C@H]3O)n[nH]c12 | > 1000 µM |  |
| OC[C@H]1O[C@@H](c2n[nH]c3c(SCC(F)(F)F)ncnc23)[C@H](O)[C@@H]1O | 64 µM | 1.09 µM |
| CN[C@H]1[C@H](O)[C@@H](CO)O[C@H]1c1n[nH]c2c(SC)ncnc12 | 49 µM |  |
| CSc1ncnc2c([C@@H]3O[C@H](CO)[C@@H](O)[C@H]3O)n(C)nc12 | > 1000 µM |  |
| CSc1ncnc2c([C@H]3C[C@H](O)[C@@H](CO)O3)n[nH]c12 | > 1000 µM | > 3 µM |
| OC[C@H]1O[C@@H](c2n[nH]c3c(NCCl)ncnc23)[C@H](O)[C@@H]1O | 19 µM | 0.282 µM |
| OC[C@H]1O[C@@H](c2n[nH]c3c(NC4CC4)ncnc23)[C@H](O)[C@@H]1O | 431 µM |  |
| CSc1ncnc2c([C@H]3C=C[C@@H](CO)O3)n[nH]c12 | 190 µM |  |
| CCSc1ncnc2c([C@@H]3O[C@H](CO)[C@@H](O)[C@H]3O)n[nH]c12 | > 1000 µM | 0.201 µM |
| CSc1ncnc2c([C@@H](CO)OC(CO)CO)n[nH]c12 | > 1000 µM |  |
| CCc1ncnc2c([C@@H]3O[C@H](CO)[C@@H](O)[C@H]3O)n[nH]c12 | > 1000 µM |  |
| CSCc1ncnc2c([C@@H]3O[C@H](CO)[C@@H](O)[C@H]3O)n[nH]c12 | > 1000 µM |  |
| OC[C@H]1O[C@@H](c2n[nH]c3c(-n4cncn4)ncnc23)[C@H](O)[C@@H]1O | 7.9 µM | 0.251 µM |
| O=c1[nH]cnc2c([C@@H]3O[C@H](CO)[C@@H](O)[C@H]3O)n[nH]c12 [FORMYCIN B] | 68 µM | 3.63 µM |
| Nc1ncnc2c([C@@H]3O[C@H](CO)[C@@H](O)[C@H]3O)[nH]nc12 [FORMYCIN] | 2.6 µM | 0.029 µM |
